Experimental data from patent US20200331925A1, “HETEROCYCLIC COMPOUNDS FOR THE TREATMENT OF ABNORMAL CELLULAR PROLIFERATION” (G1 Therapeutics, Inc., priority 2018, published 2020).

Assays:
Format in all cases: biochemical
[1] = target: CDK9/Cyclin T (Homo sapiens, UniProt P50750); test: CDK9/Cyclin T kinase assay (Nanosyn, Caliper microfluidic); details: 12-point dose-response, ATP at Km (10 μM), 17 hr
Experimental: (§1) Selected compounds disclosed herein were tested in kinase assays by Nanosyn (Santa Clara, Calif.) to determine their inhibitory effect on selected CDKs. The assays were performed using microfluidic kinase detection technology (Caliper Assay Platform). The compounds were tested in 12-point dose-response format in singlicate at Kmfor ATP. Phosphoacceptor substrate peptide concentration used was 1 μM for all assays and Staurosporine was used as the reference compound for all assays. Specifics of each assay are as described below: CDK7/Cyclin Ti: Enzyme concentration: 5 nM; ATP concentration: 10 μM; Incubation time: 17 hr.

[2] = target: CDK4/Cyclin D1 (Homo sapiens, UniProt P11802); test: CDK4/Cyclin D1 kinase assay (Nanosyn, Caliper microfluidic); details: 12-point dose-response, ATP at Km (200 μM), 3 hr
Experimental: as §1, with “CDK4/Cyclin D1:” for “CDK7/Cyclin Ti:”, “1” for “5”, “200” for “10”, “3” for “17”

[3] = target: CDK1/Cyclin B1 (Homo sapiens, UniProt P06493); test: CDK1/Cyclin B1 kinase assay (Nanosyn, Caliper microfluidic); details: 12-point dose-response, ATP at Km (40 μM), 3 hr
Experimental: as §1, with “CDK1/Cyclin B1:” for “CDK7/Cyclin Ti:”, “0.08” for “5”, “40” for “10”, “3” for “17”

[4] = target: CDK2/Cyclin A (Homo sapiens, UniProt P24941); test: CDK2/Cyclin A kinase assay (Nanosyn, Caliper microfluidic); details: 12-point dose-response, ATP at Km (50 μM), 3 hr
Experimental: as §1, with “CDK2/Cyclin A:” for “CDK7/Cyclin Ti:”, “0.1” for “5”, “50” for “10”, “3” for “17”

[5] = target: CDK5/p35 (Homo sapiens, UniProt Q00535); test: CDK5/p35 kinase assay (Nanosyn, Caliper microfluidic); details: 12-point dose-response, ATP at Km (20 μM), 3 hr
Experimental: as §1, with “CDK5/p35:” for “CDK7/Cyclin Ti:”, “0.05” for “5”, “20” for “10”, “3” for “17”

[6] = target: CDK2/Cyclin E (Homo sapiens, UniProt P24941); test: CDK2/Cyclin E kinase assay (Nanosyn, Caliper microfluidic); details: 12-point dose-response, ATP at Km (100 μM), 3 hr
Experimental: as §1, with “CDK2/Cyclin E:” for “CDK7/Cyclin Ti:”, “0.15” for “5”, “100” for “10”, “3” for “17”

[7] = target: CDK3/Cyclin E (Homo sapiens, UniProt Q00526); test: CDK3/Cyclin E kinase assay (Nanosyn, Caliper microfluidic); details: 12-point dose-response, ATP at Km (400 μM), 3 hr
Experimental: as §1, with “CDK3/Cyclin E:” for “CDK7/Cyclin Ti:”, “1” for “5”, “400” for “10”, “3” for “17”

[8] = target: CDK5/p25 (Homo sapiens, UniProt Q00535); test: CDK5/p25 kinase assay (Nanosyn, Caliper microfluidic); details: 12-point dose-response, ATP at Km (20 μM), 3 hr
Experimental: as §1, with “CDK5/p25:” for “CDK7/Cyclin Ti:”, “0.1” for “5”, “20” for “10”, “3” for “17”

[9] = target: CDK7/Cyclin H (Homo sapiens, UniProt P50613); test: CDK7/Cyclin H kinase assay (Nanosyn, Caliper microfluidic); details: 12-point dose-response, ATP at Km (50 μM), 17 hr
Experimental: as §1, with “H:” for “Ti:”, “10” for “5”, “50” for “10”

[10] = target: CDK6/Cyclin D3 (Homo sapiens, UniProt Q00534); test: CDK6/Cyclin D3 kinase assay (Nanosyn, Caliper microfluidic); details: 12-point dose-response, ATP at Km (300 μM), 3 hr
Experimental: as §1, with “CDK6/Cyclin D3:” for “CDK7/Cyclin Ti:”, “2” for “5”, “300” for “10”, “3” for “17”

Sequence of CDK6/Cyclin D3 (Q00534 whole entry): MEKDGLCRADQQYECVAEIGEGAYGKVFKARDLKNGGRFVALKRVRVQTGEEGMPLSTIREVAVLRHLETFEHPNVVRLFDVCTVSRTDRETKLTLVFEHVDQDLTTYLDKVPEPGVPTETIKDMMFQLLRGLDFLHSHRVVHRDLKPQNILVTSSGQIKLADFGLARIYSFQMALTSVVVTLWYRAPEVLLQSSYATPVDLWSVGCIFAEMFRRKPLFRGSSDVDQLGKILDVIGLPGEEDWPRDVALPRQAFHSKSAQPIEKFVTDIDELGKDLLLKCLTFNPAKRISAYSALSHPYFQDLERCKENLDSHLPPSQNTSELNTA
Sequence of CDK6/Cyclin D3 (P30281 whole entry partner): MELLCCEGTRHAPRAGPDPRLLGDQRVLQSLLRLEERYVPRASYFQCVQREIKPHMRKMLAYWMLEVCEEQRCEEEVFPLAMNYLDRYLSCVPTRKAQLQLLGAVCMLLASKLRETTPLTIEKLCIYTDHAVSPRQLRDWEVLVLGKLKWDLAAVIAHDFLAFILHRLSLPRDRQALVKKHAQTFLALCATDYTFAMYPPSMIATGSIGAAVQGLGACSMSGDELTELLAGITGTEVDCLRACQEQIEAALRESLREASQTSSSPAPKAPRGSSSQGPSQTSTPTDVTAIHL
Sequence of CDK9/Cyclin T (P50750 whole entry): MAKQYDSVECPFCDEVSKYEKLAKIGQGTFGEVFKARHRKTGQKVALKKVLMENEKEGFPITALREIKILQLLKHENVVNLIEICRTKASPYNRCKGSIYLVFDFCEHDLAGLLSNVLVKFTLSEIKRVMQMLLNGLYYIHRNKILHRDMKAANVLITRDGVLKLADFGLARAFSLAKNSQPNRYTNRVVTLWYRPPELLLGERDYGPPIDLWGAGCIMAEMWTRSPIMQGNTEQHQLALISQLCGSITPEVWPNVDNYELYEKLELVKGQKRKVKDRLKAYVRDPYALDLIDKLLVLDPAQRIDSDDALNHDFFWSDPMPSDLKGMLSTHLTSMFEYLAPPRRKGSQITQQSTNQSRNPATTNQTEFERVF
Sequence of CDK9/Cyclin T (O60563 whole entry partner): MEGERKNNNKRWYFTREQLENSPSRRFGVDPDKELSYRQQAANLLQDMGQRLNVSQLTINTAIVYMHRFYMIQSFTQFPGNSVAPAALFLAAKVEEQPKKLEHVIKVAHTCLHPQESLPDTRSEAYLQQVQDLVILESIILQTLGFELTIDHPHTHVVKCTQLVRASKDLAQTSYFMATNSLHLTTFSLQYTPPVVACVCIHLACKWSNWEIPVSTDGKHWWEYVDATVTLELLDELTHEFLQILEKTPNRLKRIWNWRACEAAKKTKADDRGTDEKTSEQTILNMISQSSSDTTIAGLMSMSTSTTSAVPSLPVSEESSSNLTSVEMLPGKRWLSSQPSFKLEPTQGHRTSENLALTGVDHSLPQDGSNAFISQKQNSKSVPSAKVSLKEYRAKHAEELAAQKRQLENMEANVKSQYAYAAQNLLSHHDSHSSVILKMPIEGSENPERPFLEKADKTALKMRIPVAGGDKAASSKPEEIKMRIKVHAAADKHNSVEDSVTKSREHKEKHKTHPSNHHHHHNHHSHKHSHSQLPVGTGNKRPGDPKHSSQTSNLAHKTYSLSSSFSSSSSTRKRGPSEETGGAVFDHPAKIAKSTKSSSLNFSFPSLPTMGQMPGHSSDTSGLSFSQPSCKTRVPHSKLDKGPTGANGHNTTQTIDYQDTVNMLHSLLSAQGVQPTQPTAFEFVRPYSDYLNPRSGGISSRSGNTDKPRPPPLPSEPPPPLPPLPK
Sequence of CDK7/Cyclin H (P50613 whole entry): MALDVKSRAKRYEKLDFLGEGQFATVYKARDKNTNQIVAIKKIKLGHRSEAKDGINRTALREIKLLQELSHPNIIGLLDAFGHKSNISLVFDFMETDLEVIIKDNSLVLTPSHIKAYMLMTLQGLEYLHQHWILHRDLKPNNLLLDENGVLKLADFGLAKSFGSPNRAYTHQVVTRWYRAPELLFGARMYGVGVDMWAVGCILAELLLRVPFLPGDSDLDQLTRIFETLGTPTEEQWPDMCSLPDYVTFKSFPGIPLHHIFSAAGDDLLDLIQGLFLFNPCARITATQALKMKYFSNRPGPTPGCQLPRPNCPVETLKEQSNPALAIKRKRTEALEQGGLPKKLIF
Sequence of CDK7/Cyclin H (P51946 whole entry partner): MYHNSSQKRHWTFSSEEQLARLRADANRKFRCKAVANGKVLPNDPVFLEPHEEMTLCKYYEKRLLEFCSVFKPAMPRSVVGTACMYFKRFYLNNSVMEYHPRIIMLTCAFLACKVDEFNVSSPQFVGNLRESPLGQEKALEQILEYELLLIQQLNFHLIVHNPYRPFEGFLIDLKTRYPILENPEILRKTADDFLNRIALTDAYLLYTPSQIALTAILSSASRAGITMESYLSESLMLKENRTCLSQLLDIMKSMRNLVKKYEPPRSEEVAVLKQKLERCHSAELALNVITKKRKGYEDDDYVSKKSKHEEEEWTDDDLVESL
Sequence of CDK7/Cyclin H (P51948 whole entry partner): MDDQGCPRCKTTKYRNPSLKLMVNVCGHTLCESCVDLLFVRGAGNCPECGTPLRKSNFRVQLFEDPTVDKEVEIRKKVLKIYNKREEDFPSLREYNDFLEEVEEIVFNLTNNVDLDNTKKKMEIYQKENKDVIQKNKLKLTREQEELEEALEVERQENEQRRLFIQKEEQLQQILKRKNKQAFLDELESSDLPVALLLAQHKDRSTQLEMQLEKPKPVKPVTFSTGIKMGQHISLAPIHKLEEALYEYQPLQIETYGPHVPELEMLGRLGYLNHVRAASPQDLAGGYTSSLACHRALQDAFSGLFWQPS
Sequence of CDK4/Cyclin D1 (P11802 whole entry): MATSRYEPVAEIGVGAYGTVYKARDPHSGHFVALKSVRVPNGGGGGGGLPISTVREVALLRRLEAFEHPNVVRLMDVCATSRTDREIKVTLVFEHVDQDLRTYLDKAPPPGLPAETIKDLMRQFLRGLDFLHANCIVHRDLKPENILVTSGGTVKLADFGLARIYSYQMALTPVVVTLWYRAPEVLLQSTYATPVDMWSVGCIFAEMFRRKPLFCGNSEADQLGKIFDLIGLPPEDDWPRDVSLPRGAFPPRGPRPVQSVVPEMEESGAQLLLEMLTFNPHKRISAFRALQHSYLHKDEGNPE
Sequence of CDK4/Cyclin D1 (P24385 whole entry partner): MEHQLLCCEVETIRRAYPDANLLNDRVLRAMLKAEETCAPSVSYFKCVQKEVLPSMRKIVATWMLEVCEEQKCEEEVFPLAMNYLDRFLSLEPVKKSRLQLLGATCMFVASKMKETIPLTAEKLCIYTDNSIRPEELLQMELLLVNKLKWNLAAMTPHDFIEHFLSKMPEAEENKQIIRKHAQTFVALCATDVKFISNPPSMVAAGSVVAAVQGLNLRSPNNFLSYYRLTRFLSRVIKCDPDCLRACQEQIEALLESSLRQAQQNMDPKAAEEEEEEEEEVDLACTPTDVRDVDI
Sequence of CDK5/p35 (Q00535 whole entry): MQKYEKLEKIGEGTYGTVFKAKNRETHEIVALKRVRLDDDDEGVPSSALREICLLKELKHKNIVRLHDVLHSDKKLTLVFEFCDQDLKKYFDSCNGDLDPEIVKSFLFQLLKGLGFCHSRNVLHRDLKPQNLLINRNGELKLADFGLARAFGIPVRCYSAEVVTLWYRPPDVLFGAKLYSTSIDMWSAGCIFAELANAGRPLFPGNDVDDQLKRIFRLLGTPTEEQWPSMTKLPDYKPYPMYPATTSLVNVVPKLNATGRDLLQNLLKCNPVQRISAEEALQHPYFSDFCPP
Sequence of CDK5/p35 (Q15078 whole entry partner): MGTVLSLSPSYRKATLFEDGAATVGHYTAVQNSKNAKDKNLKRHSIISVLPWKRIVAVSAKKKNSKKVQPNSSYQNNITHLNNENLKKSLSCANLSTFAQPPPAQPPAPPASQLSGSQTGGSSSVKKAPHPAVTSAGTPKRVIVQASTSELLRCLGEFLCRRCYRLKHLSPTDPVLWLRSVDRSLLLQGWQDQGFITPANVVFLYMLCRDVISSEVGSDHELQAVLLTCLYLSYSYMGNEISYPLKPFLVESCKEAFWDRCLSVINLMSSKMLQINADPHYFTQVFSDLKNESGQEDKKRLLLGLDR
Sequence of CDK5/p25 (Q00535 whole entry): as the sequence (Q00535 whole entry) above
Sequence of CDK5/p25 (Q15078 99-307 partner limits assumed): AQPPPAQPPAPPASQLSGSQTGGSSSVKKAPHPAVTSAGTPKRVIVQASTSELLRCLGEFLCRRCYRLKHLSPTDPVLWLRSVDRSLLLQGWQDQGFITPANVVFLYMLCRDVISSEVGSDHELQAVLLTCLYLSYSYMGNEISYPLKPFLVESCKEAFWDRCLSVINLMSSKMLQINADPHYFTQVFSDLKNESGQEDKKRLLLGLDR

SMILES | IC50 ([1]; Table 5) [µM] | IC50 ([2]; Table 4) [µM] | IC50 [3] [µM] | IC50 [4] [µM] | IC50 [5] [µM] | IC50 [6] [µM] | IC50 [7] [µM] | IC50 [8] [µM] | IC50 [9] [µM] | IC50 [10] [µM] | IC50 ([1]; Table 6) [µM] | IC50 ([2]; Table 6) [µM]
O=C1NCC2(CCCCC2)n2c1cc1cnc(N[C@H]3CC[C@H](N4CCC(C(F)(F)F)CC4)CC3)nc12 [Compound 56, 2′-(((1r,4r)-4-(4-(trifluoromethyl)piperidin-1-yl)cyclohexyl)amino)-7′,8′-dihydro-6′H-spiro[cyclohexane-1,9′-pyrazino[1′,2′:1,5]pyrrolo[2,3-d]pyrimidin]-6′-one] | – | – | – | – | – | – | – | – | – | – | 0.004 | 0.027
CC(C)(C)N1CCN([C@H]2CC[C@H](Nc3ncc4cc5n(c4n3)C3(CCCCC3)CNC5=O)CC2)CC1 [Compound 57, 2′-(((1r,4r)-4-(4-(tert-butyl)piperazin-1-yl)cyclohexyl)amino)-7′,8′-dihydro-6′H-spiro[cyclohexane-1,9′-pyrazino[1′,2′:1,5]pyrrolo[2,3-d]pyrimidin]-6′-one] | – | – | – | – | – | – | – | – | – | – | 0.003 | 0.005
O=C1NCC2(CCCCC2)n2c1cc1cnc(N[C@H]3CC[C@H](N4CCN(C5CC5)CC4)CC3)nc12 [Compound 58, 2′-(((1r,4r)-4-(4-cyclopropylpiperazin-1-yl)cyclohexyl)amino)-7′,8′-dihydro-6′H-spiro[cyclohexane-1,9′-pyrazino[1′,2′:1,5]pyrrolo[2,3-d]pyrimidin]-6′-one] | – | – | – | – | – | – | – | – | – | – | – | 0.033
O=C1NCC2(CCCCC2)n2c1cc1cnc(N[C@H]3CC[C@H](N4CCN(C5CCCC5)CC4)CC3)nc12 [Compound 59, 2′-(((1r,4r)-4-(4-cyclopentylpiperazin-1-yl)cyclohexyl)amino)-7′,8′-dihydro-6′H-spiro[cyclohexane-1,9′-pyrazino[1′,2′:1,5]pyrrolo[2,3-d]pyrimidin]-6′-one] | – | – | – | – | – | – | – | – | – | – | 0.002 | 0.004
O=C1NCC2(CCCCC2)n2c1cc1cnc(N[C@H]3CC[C@H](N4CCN(c5ccc(F)cc5)CC4)CC3)nc12 [Compound 60, 2′-(((1r,4r)-4-(4-(4-fluorophenyl)piperazin-1-yl)cyclohexyl)amino)-7′,8′-dihydro-6′H-spiro[cyclohexane-1,9′-pyrazino[1′,2′:1,5]pyrrolo[2,3-d]pyrimidin]-6′-one] | – | – | – | – | – | – | – | – | – | – | 0.003 | 0.013
O=C1NCC2(CCCCC2)n2c1cc1cnc(N[C@H]3CC[C@H](N4CCN(CC5CCCCC5)CC4)CC3)nc12 [Compound 61, 2′-(((1r,4r)-4-(4-(cyclohexylmethyl)piperazin-1-yl)cyclohexyl)amino)-7′,8′-dihydro-6′H-spiro[cyclohexane-1,9′-pyrazino[1′,2′:1,5]pyrrolo[2,3-d]pyrimidin]-6′-one] | – | – | – | – | – | – | – | – | – | – | – | 0.013
O=C1NCC2(CCCCC2)n2c1cc1cnc(N[C@H]3CC[C@H](N4CCN(C(=O)C5CC5)CC4)CC3)nc12 [Compound 62, 2′-(((1r,4r)-4-(4-(cyclopropanecarbonyl)piperazin-1-yl)cyclohexyl)amino)-7′,8′-dihydro-6′H-spiro[cyclohexane-1,9′-pyrazino[1′,2′:1,5]pyrrolo[2,3-d]pyrimidin]-6′-one] | – | – | – | – | – | – | – | – | – | – | – | 0.02

The remaining lines, values ahead:

IC50 ([1]; Table 5) [µM] | IC50 ([2]; Table 4) [µM] | IC50 [3] [µM] | IC50 [4] [µM] | IC50 [5] [µM] | IC50 [6] [µM] | IC50 [7] [µM] | IC50 [8] [µM] | IC50 [9] [µM] | IC50 [10] [µM] | IC50 ([1]; Table 6) [µM] | IC50 ([2]; Table 6) [µM] | SMILES
3.4 | 0.82 | > 100 | 65 | > 100 | > 100 | > 100 | > 100 | > 100 | 5.6 | – | – | O=C1NCC2(CCCCC2)n2c1cc1cnc(N[C@H]3C[C@@H](O)CNC3=O)nc12 [Compound 7, 2′-(((3S,5R)-5-hydroxy-2-oxopiperidin-3-yl)amino)-7′,8′-dihydro-6′H-spiro[cyclohexane-1,9′-pyrazino[1′,2′:1,5]pyrrolo[2,3-d]pyrimidin]-6′-one]
0.44 | 0.1 | 27 | 11 | 26 | 24 | 18 | 25 | 7.2 | 0.53 | – | – | O=C1NCC2(CCCCC2)n2c1cc1cnc(N[C@@H]3C[C@@H](O)CNC3=O)nc12 [Compound 8, 2′-(((3R,5R)-5-hydroxy-2-oxopiperidin-3-yl)amino)-7′,8′-dihydro-6′H-spiro[cyclohexane-1,9′-pyrazino[1′,2′:1,5]pyrrolo[2,3-d]pyrimidin]-6′-one]
1.6 | 0.12 | 82 | 71 | > 100 | > 100 | > 100 | > 100 | 20 | 12 | – | – | O=C1NCC2(CCCCC2)n2c1cc1cnc(N[C@@H]3CCCN[C@@H]3c3ccccc3)nc12 [Compound 9, 2′-(((2R,3R)-2-phenylpiperidin-3-yl)amino)-7′,8′-dihydro-6′H-spiro[cyclohexane-1,9′-pyrazino[1′,2′:1,5]pyrrolo[2,3-d]pyrimidin]-6'-one]
0.08 | 0.036 | 8.8 | 3.6 | 9.7 | 5.7 | 16 | 11 | 1.8 | 1.2 | – | – | O=C1NCC2(CCCCC2)n2c1cc1cnc(N[C@H]3CCCN[C@@H]3c3ccccc3)nc12 [Compound 10, 2′-(((2R,3S)-2-phenylpiperidin-3-yl)amino)-7′,8′-dihydro-6′H-spiro[cyclohexane-1,9′-pyrazino[1′,2′:1,5]pyrrolo[2,3-d]pyrimidin]-6′-one]
